In ChEMBL document CHEMBL1201861, “Genomics of Drug Sensitity in Cancer screening data, Wellcome Trust Sanger Institute”:

Experiments:
Test in all cases: cells
Format in all cases: functional, cell-based, Homo sapiens
KLE = tested on: KLE;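 further: growth inhibition of human KLE cells, read out with a cell viability assay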
Description: SANGER: Inhibition of human KLE cell growth in a cell viability assay.

K5 = tested on: K5
Description: SANGER: Inhibition of human K5 cell growth in a cell viability assay.

NB13 = tested on: NB13;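 further: cell viability readout measuring growth inhibition of human NB13 cells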
Description: SANGER: Inhibition of human NB13 cell growth in a cell viability assay.

TE-6 = tested on: TE-6;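 further: growth inhibition of TE-6 cells, read out with a cell viability assay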
Description: SANGER: Inhibition of human TE-6 cell growth in a cell viability assay.

OVCAR-4 = tested on: OVCAR-4;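 further: growth inhibition of human OVCAR-4 cells, measured with a cell viability assay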
Description: SANGER: Inhibition of human OVCAR-4 cell growth in a cell viability assay.

RPMI-8866 = tested on: RPMI-8866
Description: SANGER: Inhibition of human RPMI-8866 cell growth in a cell viability assay.

HCC2218 = tested on: HCC2218;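 further: cell viability assay read-out, with IC50 given as the concentration that inhibits growth of the cell line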
Description: SANGER: Inhibition of human HCC2218 cell growth in a cell viability assay.

IST-MES1 = tested on: IST-MES1;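 further: growth inhibition of IST-MES1 cells, measured with a cell viability assay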
Description: SANGER: Inhibition of human IST-MES1 cell growth in a cell viability assay.

OMC-1 = tested on: OMC-1;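 further: growth inhibition of the OMC-1 cell line, measured by a cell viability assay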
Description: SANGER: Inhibition of human OMC-1 cell growth in a cell viability assay.

BB49-HNC = tested on: BB49-HNC;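 further: cell viability assay read-out, reported as inhibition of BB49-HNC cell growth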
Description: SANGER: Inhibition of human BB49-HNC cell growth in a cell viability assay.

DU-4475 = tested on: DU-4475
Description: SANGER: Inhibition of human DU-4475 cell growth in a cell viability assay.

NCI-H510A = tested on: NCI-H510A;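 further: growth inhibition of NCI-H510A cells, read out with a cell viability assay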
Description: SANGER: Inhibition of human NCI-H510A cell growth in a cell viability assay.

NH-12 = tested on: NH-12;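 further: growth inhibition of NH-12 cells, read out with a cell viability assay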
Description: SANGER: Inhibition of human NH-12 cell growth in a cell viability assay.

NCI-H2126 = tested on: NCI-H2126;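 further: growth inhibition of the cancer cell line, determined with a cell viability readout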
Description: SANGER: Inhibition of human NCI-H2126 cell growth in a cell viability assay.

no-10 = tested on: no-10;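 further: growth inhibition of no-10 cells, read out with a cell viability assay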
Description: SANGER: Inhibition of human no-10 cell growth in a cell viability assay.

IST-SL1 = tested on: IST-SL1;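 further: growth inhibition of human IST-SL1 cells, read out with a cell viability assay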
Description: SANGER: Inhibition of human IST-SL1 cell growth in a cell viability assay.

DSH1 = tested on: DSH1;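 further: growth inhibition of human DSH1 cells, measured with a cell viability readout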
Description: SANGER: Inhibition of human DSH1 cell growth in a cell viability assay.

DEL = tested on: DEL;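 further: growth inhibition of the human DEL cell line, read out with a cell viability assay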
Description: SANGER: Inhibition of human DEL cell growth in a cell viability assay.

GCIY = tested on: GCIY;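 further: growth inhibition of the human GCIY cell line, read out by a cell viability assay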
Description: SANGER: Inhibition of human GCIY cell growth in a cell viability assay.

KP-N-YS = tested on: KP-N-YS;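 further: cell viability assay measuring inhibition of cell line growth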
Description: SANGER: Inhibition of human KP-N-YS cell growth in a cell viability assay.

EW-13 = tested on: EW-13;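 further: growth inhibition of EW-13 cells, read out with a cell viability assay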
Description: SANGER: Inhibition of human EW-13 cell growth in a cell viability assay.

COLO-824 = tested on: COLO-824
Description: SANGER: Inhibition of human COLO-824 cell growth in a cell viability assay.

J-RT3-T3-5 = tested on: J-RT3-T3-5;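 further: cell viability assay measuring growth inhibition of human J-RT3-T3-5 cells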
Description: SANGER: Inhibition of human J-RT3-T3-5 cell growth in a cell viability assay.

SK-LMS-1 = tested on: SK-LMS-1;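 further: growth inhibition of human SK-LMS-1 cells, read out with a cell viability assay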
Description: SANGER: Inhibition of human SK-LMS-1 cell growth in a cell viability assay.

KU812 cell line = tested on: KU812 cell line;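 further: growth inhibition of KU812 cells, read out with a cell viability assay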
Description: SANGER: Inhibition of human KU812 cell growth in a cell viability assay.

NCI-H1838 = tested on: NCI-H1838;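 further: growth inhibition of NCI-H1838 cells, determined with a cell viability readout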
Description: SANGER: Inhibition of human NCI-H1838 cell growth in a cell viability assay.

CCRF-CEM = tested on: CCRF-CEM;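 further: inhibition of CCRF-CEM cell growth, measured by a cell viability assay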
Description: SANGER: Inhibition of human CCRF-CEM cell growth in a cell viability assay.

GI-1 = tested on: GI-1;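 further: growth inhibition of human GI-1 cells, measured with a cell viability readout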
Description: SANGER: Inhibition of human GI-1 cell growth in a cell viability assay.

TGBC24TKB = tested on: TGBC24TKB;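 further: growth inhibition of human TGBC24TKB cells, read out with a cell viability assay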
Description: SANGER: Inhibition of human TGBC24TKB cell growth in a cell viability assay.

C2BBe1 = tested on: C2BBe1;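 further: growth inhibition of C2BBe1 cells, read out through a viability assay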
Description: SANGER: Inhibition of human C2BBe1 cell growth in a cell viability assay.

NKM-1 = tested on: NKM-1;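 further: growth inhibition of NKM-1 cells, read out with a cell viability assay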
Description: SANGER: Inhibition of human NKM-1 cell growth in a cell viability assay.

SNU1 = tested on: SNU1;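 further: growth inhibition of human NCI-SNU-1 cells, measured with a cell viability assay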
Description: SANGER: Inhibition of human NCI-SNU-1 cell growth in a cell viability assay.

LNCaP-Clone-FGC = tested on: LNCaP-Clone-FGC
Description: SANGER: Inhibition of human LNCaP-Clone-FGC cell growth in a cell viability assay.

LAMA-84 = tested on: LAMA-84;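 further: growth inhibition of LAMA-84 cells, read out with a cell viability assay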
Description: SANGER: Inhibition of human LAMA-84 cell growth in a cell viability assay.

RCC10RGB = tested on: RCC10RGB;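 further: growth inhibition of human RCC10RGB cells, read out by a cell viability assay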
Description: SANGER: Inhibition of human RCC10RGB cell growth in a cell viability assay.

HC-1 = tested on: HC-1;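 further: growth inhibition of HC-1 cells measured by a cell viability assay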
Description: SANGER: Inhibition of human HC-1 cell growth in a cell viability assay.

L-428 = tested on: L-428
Description: SANGER: Inhibition of human L-428 cell growth in a cell viability assay.

MMAC-SF = tested on: MMAC-SF;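 further: growth inhibition of human MMAC-SF cells, read out with a cell viability assay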
Description: SANGER: Inhibition of human MMAC-SF cell growth in a cell viability assay.

NCI-H1355 = tested on: NCI-H1355;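 further: growth inhibition of human NCI-H1355 cells, read out by a cell viability assay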
Description: SANGER: Inhibition of human NCI-H1355 cell growth in a cell viability assay.

GOTO = tested on: GOTO;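 further: growth inhibition of GOTO cells, read out by a cell viability assay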
Description: SANGER: Inhibition of human GOTO cell growth in a cell viability assay.

MN-60 = tested on: MN-60;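 further: growth inhibition of the MN-60 cell line, determined with a cell viability assay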
Description: SANGER: Inhibition of human MN-60 cell growth in a cell viability assay.

NCI-H82 = tested on: NCI-H82;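 further: growth inhibition of NCI-H82 cells, measured with a cell viability readout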
Description: SANGER: Inhibition of human NCI-H82 cell growth in a cell viability assay.

ONS-76 = tested on: ONS-76;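 further: growth inhibition of human ONS-76 cells, read out with a cell viability assay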
Description: SANGER: Inhibition of human ONS-76 cell growth in a cell viability assay.

SF-268 = tested on: SF-268;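 further: growth inhibition of SF-268 cells determined with a cell viability assay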
Description: SANGER: Inhibition of human SF268 cell growth in a cell viability assay.

SNB-75 = tested on: SNB-75;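 further: cell viability assay measuring growth inhibition of human SNB-75 cells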
Description: SANGER: Inhibition of human SNB75 cell growth in a cell viability assay.

Becker = tested on: Becker;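 further: growth inhibition of Becker cells, read out with a cell viability assay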
Description: SANGER: Inhibition of human Becker cell growth in a cell viability assay.

NCI-H226 = tested on: NCI-H226;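 further: cell viability read-out used to gauge growth inhibition of the cells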
Description: SANGER: Inhibition of human NCI-H226 cell growth in a cell viability assay.

MZ1-PC = tested on: MZ1-PC;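 further: cell viability assay measuring growth inhibition of human MZ1-PC cells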
Description: SANGER: Inhibition of human MZ1-PC cell growth in a cell viability assay.

QIMR-WIL = tested on: QIMR-WIL;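 further: growth inhibition of QIMR-WIL cells, read out with a cell viability assay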
Description: SANGER: Inhibition of human QIMR-WIL cell growth in a cell viability assay.

Compound: CO[C@H]1C[C@@H]2CC[C@@H](C)[C@@](O)(O2)C(=O)C(=O)N2CCCC[C@H]2C(=O)O[C@H]([C@H](C)C[C@@H]2CC[C@@H](OC(=O)C(C)(CO)CO)[C@H](OC)C2)CC(=O)[C@H](C)/C=C(\C)[C@@H](O)[C@@H](OC)C(=O)[C@H](C)C[C@H](C)/C=C/C=C/C=C/1C [TEMSIROLIMUS]
- IC50 (KLE; Homo sapiens, KLE): > 0.2 µM
- IC50 (K5; Homo sapiens, K5): 0.00133 µM
- IC50 (NB13; Homo sapiens, NB13): > 0.2 µM
- IC50 (TE-6; Homo sapiens, TE-6): 0.189 µM
- IC50 (OVCAR-4; Homo sapiens, OVCAR-4): > 0.2 µM
- IC50 (RPMI-8866; Homo sapiens, RPMI-8866): 0.0314 µM
- IC50 (HCC2218; Homo sapiens, HCC2218): > 0.2 µM
- IC50 (IST-MES1; Homo sapiens, IST-MES1): > 0.2 µM
- IC50 (OMC-1; Homo sapiens, OMC-1): > 0.2 µM
- IC50 (BB49-HNC; Homo sapiens, BB49-HNC): > 0.2 µM
- IC50 (DU-4475; Homo sapiens, DU-4475): 0.0117 µM
- IC50 (NCI-H510A; Homo sapiens, NCI-H510A): > 0.2 µM
- IC50 (NH-12; Homo sapiens, NH-12): > 0.2 µM
- IC50 (NCI-H2126; Homo sapiens, NCI-H2126): 0.058 µM
- IC50 (no-10; Homo sapiens): > 0.2 µM
- IC50 (IST-SL1; Homo sapiens, IST-SL1): > 0.2 µM
- IC50 (DSH1; Homo sapiens, DSH1): > 0.2 µM
- IC50 (DEL; Homo sapiens, DEL): 0.00546 µM
- IC50 (GCIY; Homo sapiens, GCIY): > 0.2 µM
- IC50 (KP-N-YS; Homo sapiens, KP-N-YS): > 0.2 µM
- IC50 (EW-13; Homo sapiens, EW-13): 0.0145 µM
- IC50 (COLO-824; Homo sapiens, COLO-824): > 0.2 µM
- IC50 (J-RT3-T3-5; Homo sapiens, J-RT3-T3-5): 0.0124 µM
- IC50 (SK-LMS-1; Homo sapiens, SK-LMS-1): > 0.2 µM
- IC50 (KU812 cell line; Homo sapiens, KU812): > 0.2 µM
- IC50 (NCI-H1838; Homo sapiens, NCI-H1838): > 0.2 µM
- IC50 (CCRF-CEM; Homo sapiens, CCRF-CEM): > 0.2 µM
- IC50 (GI-1; Homo sapiens, GI-1): 0.107 µM
- IC50 (TGBC24TKB; Homo sapiens, TGBC24TKB): 0.141 µM
- IC50 (C2BBe1; Homo sapiens, C2BBe1): > 0.2 µM
- IC50 (NKM-1; Homo sapiens, NKM-1): 0.198 µM
- IC50 (SNU1; Homo sapiens, SNU1): 0.00481 µM
- IC50 (LNCaP-Clone-FGC; Homo sapiens, LNCaP-Clone-FGC): 0.184 µM
- IC50 (LAMA-84; Homo sapiens, LAMA-84): 0.00403 µM
- IC50 (RCC10RGB; Homo sapiens, RCC10RGB): > 0.2 µM
- IC50 (HC-1; Homo sapiens, HC-1): 0.101 µM
- IC50 (L-428; Homo sapiens, L-428): > 0.2 µM
- IC50 (MMAC-SF; Homo sapiens, MMAC-SF): > 0.2 µM
- IC50 (NCI-H1355; Homo sapiens, NCI-H1355): 0.0559 µM
- IC50 (GOTO; Homo sapiens, GOTO): > 0.2 µM
- IC50 (MN-60; Homo sapiens, MN-60): 0.0193 µM
- IC50 (NCI-H82; Homo sapiens, NCI-H82): 0.0288 µM
- IC50 (ONS-76; Homo sapiens, ONS-76): 0.033 µM
- IC50 (SF-268; Homo sapiens, SF-268): > 0.2 µM
- IC50 (SNB-75; Homo sapiens, SNB-75): > 0.2 µM
- IC50 (Becker; Homo sapiens, Becker): 0.0799 µM
- IC50 (NCI-H226; Homo sapiens, NCI-H226): > 0.2 µM
- IC50 (MZ1-PC; Homo sapiens, MZ1-PC): > 0.2 µM
- IC50 (QIMR-WIL; Homo sapiens, QIMR-WIL): 0.00571 µM

Compound: BLEOMYCIN
- IC50 (KLE; kle): 21.2 µM
- IC50 (K5; k5): 72.4 µM
- IC50 (NB13; nb13): 36.7 µM
- IC50 (TE-6; te-6): 12.4 µM
- IC50 (OVCAR-4; ovcar-4): 4.41 µM
- IC50 (RPMI-8866; rpmi-8866): 7.91 µM
- IC50 (HCC2218; hcc2218): 41.9 µM
- IC50 (IST-MES1; ist-mes1): 206 µM
- IC50 (OMC-1; omc-1): 11.9 µM
- IC50 (BB49-HNC; bb49-hnc): 38.8 µM
- IC50 (DU-4475; du-4475): 1.27 µM
- IC50 (NCI-H510A; nci-h510a): 1.09 µM
- IC50 (NH-12; nh-12): 2.21 µM
- IC50 (NCI-H2126; nci-h2126): 358 µM
- IC50 (no-10): 27.1 µM
- IC50 (IST-SL1; ist-sl1): 54.6 µM
- IC50 (DSH1; dsh1): 155 µM
- IC50 (DEL; del): 0.48 µM
- IC50 (GCIY; gciy): 12.8 µM
- IC50 (KP-N-YS; kp-n-ys): 30.3 µM
- IC50 (EW-13; ew-13): 0.292 µM
- IC50 (COLO-824; colo-824): 53.3 µM
- IC50 (J-RT3-T3-5; j-rt3-t3-5): 0.712 µM
- IC50 (SK-LMS-1; sk-lms-1): 2.66 µM
- IC50 (KU812 cell line; ku812): 68 µM
- IC50 (NCI-H1838; nci-h1838): 24.5 µM
- IC50 (CCRF-CEM; ccrf-cem): 0.0787 µM
- IC50 (GI-1; gi-1): 1.2 µM
- IC50 (TGBC24TKB; tgbc24tkb): 204 µM
- IC50 (C2BBe1; c2bbe1): 91.8 µM
- IC50 (NKM-1; nkm-1): 0.00765 µM
- IC50 (SNU1; snu1): 2.84 µM
- IC50 (LNCaP-Clone-FGC; lncap-clone-fgc): 18.3 µM
- IC50 (LAMA-84; lama-84): 4.29 µM
- IC50 (RCC10RGB; rcc10rgb): 70.6 µM
- IC50 (HC-1; hc-1): 0.993 µM
- IC50 (L-428; l-428): 52.3 µM
- IC50 (MMAC-SF; mmac-sf): 21.3 µM
- IC50 (NCI-H1355; nci-h1355): 8.2 µM
- IC50 (GOTO; goto): 0.55 µM
- IC50 (MN-60; mn-60): 4.05 µM
- IC50 (NCI-H82; nci-h82): 225 µM
- IC50 (ONS-76; ons-76): 0.854 µM
- IC50 (SF-268; sf-268): 1.32 µM
- IC50 (SNB-75; snb-75): 1.61 µM
- IC50 (Becker; becker): 26.9 µM
- IC50 (NCI-H226; nci-h226): 77.4 µM
- IC50 (MZ1-PC; mz1-pc): 0.224 µM
- IC50 (QIMR-WIL; qimr-wil): 0.637 µM
